In paper PMC12467740, “Synthesis, Characterization, and Screening Anticancer—Antibiofilm Activities of Theophylline Derivatives Containing CF3/OCF3 Moiety” (Biology, 2025):

What was measured:
Assay type in all cases: cell-based
[1] = tested on: Staphylococcus aureus (ATCC 29213); assay: Broth microdilution MIC; conditions: ciprofloxacin 0.03125–64 µg/mL
Experimental: (§1) The antibacterial activities of the compounds were determined using the broth microdilution method, as per the advice of international standards. […] Standard bacterial strains Staphylococcus aureus (ATCC 29213), Enterococcus faecalis (ATCC 29212), Escherichia coli (ATCC 25922), Pseudomonas aeruginosa (ATCC 27853), and yeast Candida albicans (ATCC 10231), were previously stored at −80 °C then revived at room temperature. Microorganisms were inoculated using overnight broth cultures. Stock solutions of the samples studied at a concentration of 1000 µg/mL were prepared with dimethyl sulfoxide (DMSO). An amount of 100 µL of Mueller Hinton Broth (Liofilchem, Italy) were dispensed into all wells of 96-well microplates. […] Serial dilutions of 0.00048–1% DMSO were made into a column of the microplate to determine its antimicrobial activity. 0.5 McFarland standard in physiological saline from each microorganism strains were prepared and 20 µL of the prepared suspension was added to the wells. An amount of 100 µL Mueller Hinton Broth in a column of the microplate served as a negative control and another column of the microplate containing 100 µL of Mueller Hinton Broth with 20 µL of each microorganism added served as a growth control. As positive controls, ciprofloxacin was applied against bacterial strains at a concentration range of 0.03125–64 µg/mL, and fluconazole was used against Candida albicans at a concentration range of 0.3125–640 µg/mL. The plates were covered with parafilm, incubated at 36.5 °C in an aerobic environment for 24 h. After incubation, the optical density was measured at 620 nm. The first concentration without microbial growth was determined as MIC and experiments were repeated twice.

[2] = tested on: Escherichia coli (ATCC 25922); assay: Broth microdilution MIC; conditions: ciprofloxacin 0.03125–64 µg/mL
Experimental: as §1

[3] = tested on: Enterococcus faecalis (ATCC 29212); assay: Broth microdilution MIC; conditions: ciprofloxacin 0.03125–64 µg/mL
Experimental: as §1

[4] = tested on: Pseudomonas aeruginosa (ATCC 27853); assay: Broth microdilution MIC; conditions: ciprofloxacin 0.03125–64 µg/mL
Experimental: as §1

[5] = tested on: Pseudomonas aeruginosa; assay: Well plate biofilm formation assay (crystal violet); conditions: over the concentration range given per compound (Table 4)
Experimental: (§2) The well plate assay was utilized to test the effectiveness of compounds in inhibiting biofilms made by microorganisms. An amount of 100 μL of Brucella broth (Remel, Lenexa, KS, USA) containing 1% and 20% glucose (Biolife, Milan, Italy), were dispensed into the test wells. In the next step, 100 μL of compounds ranging from 0.244 to 1000 μg/mL were poured into the wells. […] Then, 0.5 McFarland standard in physiological saline from each microorganism strain were prepared and 20 μL of the prepared suspension was added to the wells. A column of the microplate containing 100 μL Brucella broth served as a negative control and another column of the microplate containing 100 μL Brucella with 20 μL of each microorganism added served as a growth control. As positive controls, ciprofloxacin was applied against bacterial strains at a concentration range of 0.03125-64 μg/mL, and fluconazole was used against Candida albicans at a concentration range of 0.3125-640 μg/mL. Plates were left to incubate at 36.5 °C for a day. The plates were emptied and then washed three times with 300 μL of deionized water. The wells were left to dry for half an hour. The next step was staining with 0.1% (w/v) violet dye ([…]), cleaning three times with deionized water, and drying at room temperature. The crystal violet adhering to the wall of the wells was dissolved with 95% ethanol, and the optical density was measured at 570 nm. The test was run two times, and the mean value was calculated. Biofilm preventing (%) = {(ODb - ODc)/ODb} × 100.

[6] = tested on: Staphylococcus aureus; assay: as above; conditions: over the concentration range given per compound (Table 4); 1c and 1e at 1000 µg/mL
Experimental: as §2

[7] = tested on: Escherichia coli; assay: as above; conditions: over the concentration range given per compound (Table 4)
Experimental: as §2

[8] = tested on: Enterococcus faecalis; assay: as above; conditions: over the concentration range given per compound (Table 4)
Experimental: as §2

[9] = tested on: Candida albicans (ATCC 10231); assay: Broth microdilution MIC; conditions: fluconazole 0.3125–640 µg/mL
Experimental: as §1

[10] = tested on: Candida albicans; assay: Well plate biofilm formation assay (crystal violet); conditions: over the concentration range given per compound (Table 4)
Experimental: as §2

| Compound | Microbial growth in positive control wells [1] | Microbial growth in positive control wells [2] | Microbial growth in positive control wells [3] | Microbial growth in positive control wells [4] | Antibiofilm activity Pseudomonas aeruginosa [5] [%] | Antibiofilm activity Staphylococcus aureus [6] [%] | Antibiofilm activity Escherichia coli [7] [%] | Antibiofilm activity Enterococcus faecalis [8] [%] | Microbial growth in positive control wells [9] | Antibiofilm activity Candida albicans [10] [%] |
| --- | --- | --- | --- | --- | --- | --- | --- | --- | --- | --- |
| O=C(O)c1cn(C2CC2)c2cc(N3CCNCC3)c(F)cc2c1=O [Ciprofloxacin, ciprofloxacin, reference compound] | no microbial growth was observed | no microbial growth was observed | no microbial growth was observed | no microbial growth was observed | 35.79 | 50.56 | 36.67 | 18.11 |  |  |
| OC(Cn1cncn1)(Cn1cncn1)c1ccc(F)cc1F [Fluconazole, fluconazole, reference compound] |  |  |  |  |  |  |  |  | no microbial growth was observed | 29.10 |
